Data set [1] has as its system Metrazol-induced clonic seizures. The data set is described as follows: Subcutaneous Metrazol test (scMet), rats. Format: in vivo.
The nature of data set [2]: Toxicity (TOX), minimal motor deficit, rats. To be noted: in vivo; Rat IP. The class given is in vivo.
The next data set has as its system kindled motor seizure. The data set is described as follows: Hippocampus kindling screen. To be noted: Rats IP. The class given is in vivo. The text has this: The hippocampus kindling screen is a useful adjunct to the traditional MES and scMet tests for identification of a substance potential utility for treating complex partial seizures. […] No toxic effects were observed as indicated by the lack of motor impairment on the rats tested.

A short description of data set [3]: Toxicity (TOX), rotorod procedure, mice. To be noted: mouse, in vivo; Mice IP, rotorod; read-out: TD50 TOX. The class given is in vivo.
In the next data set the target is T1, α1β3γ2 GABAA receptors (Homo sapiens, UniProt P14867+P18507).
T1 construct: expressed in transfected cells; host or cells: Xenopus laevis oocytes injected with cRNA
The data set is described as follows: Voltage clamp recordings from Xenopus oocytes. Format: cell-based. The procedure: The GABAA subunit selectivity of several compounds prepared as described above were determined using voltage clamp recordings from Xenopus oocytes that expressed that αxβ3γ2 GABAA receptor.
In Vitro Expression of GABAA Receptor Subunits The methods used for isolating, culturing, injecting and defolliculating of the oocytes were identical with those described by E. Sigel. […] European journal of pharmacology 1995, 289, (1), 87-95; Sigel, E.;& Baur, R., Allosteric modulation by benzodiazepine receptor ligands of the GABAA receptor channel expressed in Xenopus oocytes. J. Neurosci. 1988, 8, (1), 289-95; Sigel, E.; & Minier, F., The Xenopus oocyte: System for the study of functional expression and modulation of proteins. Molecular Nutrition & Food Research 2005, 49, (3), 228-234. Mature female Xenopus laevis (Nasco, Wis.) were anaesthetized in a bath of ice-cold 0.17% Tricain (Ethyl-m-aminobenzoate, Sigma, Mo.) before decapitation and removal of the frog ovary. Stage 5 to 6 oocytes with the follicle cell layer around them were singled out of the ovary using a platinum wire loop. […]
Voltage Clamp Recordings From Xenopus Oocytes. […] Data were digitized, recorded and measured using a Digidata 1322A data acquisition system (Axon Instruments, Union City, Calif.). […]

The structures appear in SMILES notation. Marks after values point to notes of the source that are not given here.

T1 sequence (P14867 28-456): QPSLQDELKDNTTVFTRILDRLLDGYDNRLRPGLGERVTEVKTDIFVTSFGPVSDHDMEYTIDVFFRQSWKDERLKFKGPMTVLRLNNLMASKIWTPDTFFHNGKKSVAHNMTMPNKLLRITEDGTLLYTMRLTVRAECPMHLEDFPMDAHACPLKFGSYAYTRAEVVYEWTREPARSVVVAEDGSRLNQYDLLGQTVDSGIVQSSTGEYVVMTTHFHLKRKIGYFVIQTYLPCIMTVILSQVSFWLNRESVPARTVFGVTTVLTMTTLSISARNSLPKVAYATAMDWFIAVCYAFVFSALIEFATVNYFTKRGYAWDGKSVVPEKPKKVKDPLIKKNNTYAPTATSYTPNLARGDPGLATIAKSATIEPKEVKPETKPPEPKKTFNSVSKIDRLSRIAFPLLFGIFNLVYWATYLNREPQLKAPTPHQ
T1 sequence (P28472 26-473 partner): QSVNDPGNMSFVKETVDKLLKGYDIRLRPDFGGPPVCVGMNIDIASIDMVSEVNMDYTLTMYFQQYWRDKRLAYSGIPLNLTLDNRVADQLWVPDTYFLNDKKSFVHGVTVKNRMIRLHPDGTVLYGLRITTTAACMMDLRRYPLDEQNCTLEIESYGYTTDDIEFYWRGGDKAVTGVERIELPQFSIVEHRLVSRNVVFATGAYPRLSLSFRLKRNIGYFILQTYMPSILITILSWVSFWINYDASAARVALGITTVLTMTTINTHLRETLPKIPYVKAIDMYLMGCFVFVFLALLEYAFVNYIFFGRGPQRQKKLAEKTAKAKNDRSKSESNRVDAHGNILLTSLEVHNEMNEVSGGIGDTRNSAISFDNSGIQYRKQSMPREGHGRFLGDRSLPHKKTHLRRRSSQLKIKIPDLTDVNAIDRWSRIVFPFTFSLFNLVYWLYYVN
T1 sequence (P18507 40-475): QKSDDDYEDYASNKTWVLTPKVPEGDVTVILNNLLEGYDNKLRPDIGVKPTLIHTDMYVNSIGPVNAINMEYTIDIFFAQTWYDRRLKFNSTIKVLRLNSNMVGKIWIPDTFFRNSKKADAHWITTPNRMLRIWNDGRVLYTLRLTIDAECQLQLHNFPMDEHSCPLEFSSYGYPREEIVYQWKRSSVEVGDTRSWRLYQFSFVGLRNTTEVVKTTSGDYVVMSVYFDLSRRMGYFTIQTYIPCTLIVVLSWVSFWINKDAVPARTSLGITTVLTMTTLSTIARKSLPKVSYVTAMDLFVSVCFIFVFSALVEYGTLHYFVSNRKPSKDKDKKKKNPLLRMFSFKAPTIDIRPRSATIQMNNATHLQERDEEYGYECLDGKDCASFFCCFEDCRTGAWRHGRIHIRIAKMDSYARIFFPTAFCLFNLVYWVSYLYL

As to `C#Cc1ccc2c(c1)C(c1ccccn1)=NCc1c(C(=O)OCC)ncn1-2` [Hz166 (106), 8-Acetylenyl-6-pyridin-2-yl-4H-benzo[f]imidazo[1,5-a][1,4]diazepine-3-carboxylic acid ethyl ester], the ED50 came to 35.5 mg/kg in data set [1] (Rat IP) and 98.5 mg/kg in data set [1] (Rat PO). Moreover, the “scMet, animals protected/tested” value is on record as 7/8 in data set [1] (Rat IP, 100 mg/kg, 0.5 hr); 5/8 in data set [1] (Rat IP, 100 mg/kg, 4.0 hr); 4/4 in data set [1] (Rat PO, 50 mg/kg, 0.5 h); 2/4 in data set [1] (Rat PO, 50 mg/kg, 1.0 h); 1/4 in data set [1] (Rat PO, 50 mg/kg, 2.0 h); 0/4 in data set [1] (Rat PO, 50 mg/kg, 4.0 h). The “scMet, animals protected/tested” value in data set [1] (Rat PO, 50 mg/kg, […]) is 0/4. Further, the TD50 in data set [2] is 95.3 mg/kg; in data set [3] it was > 500 mg/kg. Besides, in the data set on kindled motor seizure (50 mg/kg after 1.0 h), the “Tox, animals toxic/tested” value was 0/8^a. Also, in the data set on kindled motor seizure (50 mg/kg after 1.0 h, pre-drug 47-61), the “Afterdischarge Duration, Drug (Low-High)” value is recorded as 59- s. Also, the “efficacy at α1 (percent of control current)” value at α1β3γ2 GABAA receptors is recorded as 255%.

Regarding `C#Cc1ccc2c(c1)C(c1ccccc1F)=NCc1c(C(=O)OCC)ncn1-2` [JY-XHe-053 (15), Ethyl-8-acetyleno-6-(2′-fluorophenyl)-4H-benzo[f]imidazo[1,5-a][1,4]diazepine-3-carboxylate], the results for the median effective dose (ED50) in data set [1] (Rat IP) and in data set [1] (Rat PO) were 18.2 mg/kg and 23.7 mg/kg, respectively. In addition, the “scMet, animals protected/tested” value in data set [1] (Rat IP, 100 mg/kg, 0.5 hr) is 3/4; in data set [1] (Rat IP, 100 mg/kg, 4.0 hr) it was 3/4; in data set [1] (Rat PO, 40 mg/kg, 4.0 h), 2/4^e; in data set [1] (Rat PO, 40 mg/kg, 6.0 h), 2/4^e; in data set [1] (Rat PO, 50 mg/kg, 0.5 h), 3/4; in data set [1] (Rat PO, 50 mg/kg, 1.0 h), 3/4. Moreover, the “scMet, animals protected/tested” value in data set [1] (Rat PO, 50 mg/kg, 2.0 h) is given as 1/4; in data set [1] (Rat PO, 50 mg/kg, 4.0 h), 4/4; in data set [1] (Rat PO, 50 mg/kg, […]), 1/4. Besides, the results for the TD50 in data set [2] and in data set [3] were 69.6 mg/kg and > 400 mg/kg, respectively. Also, the “Tox, animals toxic/tested” value in the data set with kindled motor seizure (30 mg/kg after 1.0 h) is reported as 0/2^b. In addition, the “Afterdischarge Duration, Drug (Low-High)” value in the data set with kindled motor seizure (30 mg/kg after 1.0 h, pre-drug 30-41) was 38- s. Moreover, the “efficacy at α1 (percent of control current)” value at α1β3γ2 GABAA receptors was 289%.

For orientation: ED50 means the midpoint of the dose-response relation. Broadly, the TD50 is the 50% point of the dose-response relation for the toxic effect studied.

The values are drawn from patent US20100261711A1, “SELECTIVE ANTICONVULSANT AGENTS AND THEIR USES” (WiSys Technology Foundation, priority 2009, published 2010).
